Reference: US9023826B2 (L'Oreal S.A., priority 2012, dated 2015)

Experiment: Solubility in water, with or without hydrotropes, at room temperature
Assay type: physicochemical

Nc1ncnc2c1ncn2[C@@H]1O[C@H](CO)[C@@H](O)[C@H]1O [Adenosine]
stability of adenosine/hydrotropes solution in water on further dilution or concentration: stable
concentration of stable clear solution obtained (5% nicotinamide and 5% caffeine in water): 3 % (w/w)
